Like-named read-outs stand apart in the source and are kept apart here.
Key:
[1] = test system: advanced recurrent glioblastoma multiforma; experiment: Clinical use in tumor patients; format: in vivo, human
Description: Taurolidine was administered by i.p. lavage immediately following surgery for removal of recurrent ovarian tumors. For patients with glioblastoma, taurolidine was administered systemically.
Four patients, which were diagnosed with advanced recurrent glioblastoma multiforma, were treated with taurolidine. The prognosis for this group of patients was determined to be approximately 8 weeks of survival.

[2] = test system: human Burkitt's lymphoma cell line, Daudi cell line; experiment: Killing of non-anchorage-dependent tumor cells in suspension culture; format: cell-based; settings: 10-20 μM for 72 hours
Description: Two different non-anchorage-dependent tumor cell lines (a human Burkitt's lymphoma cell line, and a Daudi cell line), and precancerous cell line (a human myelodysplastic cell line) were grown in suspension culture.

[3] = test system: panel of human and murine tumor cell lines; experiment: Cell growth inhibition, panel summary; format: cell-based; settings: for IC50: 72 h; for cytotoxic concentration lower than that for antibacterial/antibiotic effect: versus concentrations used to inhibit bacterial cell growth
Description: Parallel studies were carried out to assess whether disruption of cell adhesion played a role in the cytotoxic activity.
One ml of this cell suspension was added to each well of a 12 well cell culture plate that contained 3 ml of appropriate media plus serum. […] Control wells received 40 μl of 5% Kollidon 17 PF alone. Seventy-two hours later, all cells were harvested by trypsinization and cell number determined electronically using a Coulter Model Z1 particle counter (Coulter Corp., Miami, Fla.) to assess cell growth inhibition. Each experiment was performed in duplicate and repeated a minimum of three times.
Cells were seeded at a density of 1-5×10^4 cells in each well of a 6 well tissue culture flask. […] After three days, cells were harvested by trypsinization and cell number determined electronically. Cell growth inhibition was determined by comparison to non-Taurolidine exposed control cultures. The IC50 was calculated as the concentration required to inhibit cell number by 50%.

NIH-3T3 cells [4] = experiment: Phosphotidylserine externalization, Annexin-V FITC binding; format: cell-based, murine; settings: NIH-3T3, 24 h exposure, non-significant
Description: (§1) Three×10^5 cells were seeded in plastic tissue culture flasks. […] Control cultures received an appropriate volume of Kollidine-17P. After an additional 24 h, cells were harvested and phosphotidylserine externalization determined by assessing Annexin-V FITC binding using cytofluorometric techniques. Each bar represents the mean±SE of four determinations. ** p≦0.01, *** p0.001
(§2) Cell membrane phosphotidylserine externalization, as a reflection of the potential induction of apoptosis, was assessed by flow cytometry methods using the ApoAlert® Annexin-V/FITC assay kit. Briefly, 1×10^6 cells were incubated for 24 h in tissue culture medium containing serum. […] Control cultures received 5% Kollidon 17 PF alone. Twenty-four hours later, all cells were harvested by trypsinization. The harvested cells were resuspended in 200 μl of binding buffer and then incubated for 5-15 min in a solution containing 1 μg/ml Annexin-V FITC at room temperature in the dark. The cells were then analyzed to quantitate Annexin-V binding by cytofluorometric techniques that utilized FACScan using the ModFit LT program with statistical analysis as described above.

ovarian tumor cells = experiment: DNA fragmentation, agarose-gel electrophoresis; format: cell-based, human; settings: 50 μM
[5] = test system: HL-60 human promyelocytic cell line; experiment: Apoptosis induction in non-adherent cancer cells; format: cell-based
[6] = test system: activated human T-cell cultures; experiment: Cytotoxic and apoptotic activity in normal primary cells; format: cell-based
Description: (§3) This observation was confirmed using normal (non-tumor) primary cells derived from animals, which are known to be free of tumors.

[7] = test system: normal murine bone marrow cultures; experiment: as above; format: cell-based
Description: as §3

[8] = test system: TNF; interleukins 1, 6, and 10; VEGF; TGF; experiment: Factors controlling angiogenesis in treated patients; format: in vivo, human; settings: metastatic colon cancer patients, compared to placebo
Description: Patients with metastatic colon cancer were treated with taurolidine and several factors controlling angiogenesis were measured.

[9] = test system: PA-1 human ovarian tumor cells; experiment: Phosphotidylserine externalization, Annexin-V FITC binding; format: cell-based; settings: PA-1, 24 h exposure
Description: as §1, §2

[10] = test system: SKOV-3 human ovarian tumor cells; experiment: as above; format: cell-based; settings: SKOV-3, 24 h exposure
Description: as §1, §2

[11] = test system: MDR-transfected glioblastoma cells; experiment: Cytotoxicity in drug resistant glioblastoma cells; settings: 50 μM
Description: The neoplastic cell lines used in the survey were standard tumor cell lines, e.g., PA1 human ovarian cell line, SKOV3 human ovarian cell line, HT29 human colon tumor cell line, DU145 human prostate tumor cell line, U251 human glioblastoma cell line, U251-MDR human glioblastoma cell line transfected with DNA encoding MDR, T98G human glioblastoma cell line, SP-1 human leukemia cell line, and Daudi human leukemia cell line.
Glioblastoma cells were transfected with a gene encoding multiple drug resistance (MDR).

NIH-3T3 cells [12] = experiment: PARP cleavage, Western-blot; format: cell-based, murine; settings: NIH-3T3, 24 h exposure to 50 or 100 μM
Description: (§4) Two×10^6 cells were seeded in 150 cm^2 tissue culture flasks. […] After an additional twenty-four hours, cells were harvested, cell number determined, and aliquots derived from equal cell numbers generated from each exposure condition. Total proteins from these whole cell lysates were separated by SDS-PAGE and transferred to nitrocellulose filters. Filters were then immunoblotted to detect intact PARP protein and cleavage fragments by using the clone C-2-10 mouse monoclonal anti-PARP antibody (Zymed Laboratories, San Francisco, Calif.). The resulting protein-antibody complexes were visualized by chemiluminescence techniques.
(§5) Western-blot analysis was used to assess of PARP cleavage. Two×10^6 cells were seeded into separate 75 cm^2 tissue culture flasks containing 20 ml of tissue culture media plus serum. […] Twenty-four hours after the addition of Taurolidine, cells were harvested cell number determined, and aliquots containing an equal cell number were generated from each exposure condition. Total proteins from whole cell lysates generated from these aliquots were separated by SDS-PAGE and electrotransferred to nitrocellulose filters. Filters were then processed to detect intact PARP protein and cleavage fragments by using the clone C-2-10 mouse monoclonal anti-PARP antibody (Zymed Laboratories, San Francisco, Calif.). […]

[13] = test system: SKOV3 human ovarian tumor cell line; experiment: Mouse model of recurrent ovarian cancer, intraperitoneal lavage; format: in vivo, Holland Sprague-Dawley mice; settings: i.p. lavage from 5 days after 5×10^6 tumor cells, 3 times a day for 4 days, 30 mg/day
Description: Holland Sprague-Dawley mice were injected with 5×10^6 tumor cells (e.g., SKOV3 human ovarian tumor cell line) to mimic a condition of advanced ovarian cancer. […] At least a 75-80% reduction in tumor foci was observed.

PA-1 cells = experiment: PARP cleavage, Western-blot; format: cell-based, human; settings: PA-1, 24 h exposure to 50 μM or 100 μM
Description: as §4, §5

SKOV-3 cells = experiment: PARP cleavage, Western-blot; format: cell-based, human; settings: SKOV-3, 24 h exposure to 50 μM or 100 μM
Description: as §4, §5

## O=S1(=O)CCN(CN2CCS(=O)(=O)NC2)CN1 [Taurolidine, Bis-(1,1-dioxoperhydro-1,2,4-thiadiazinyl-4)methane]
[1]; 20 g i.v. over 6 hours twice a week, at least one 5 week regimen
  patients in whom the tumor mass decreased or stayed the same: 3 out of the 4
[1]; i.p. lavage (recurrent ovarian tumors) or systemic (glioblastoma)
  tolerability in patients: well tolerated
[1]; prognosis approximately 8 weeks
  survival after initiation of therapy, each patient alive: ≥ 14 weeks
[2]
  cells died: 50%
[3]; 3 d exposure, panel of human and murine tumor cell lines, read-out: IC50s over all cell lines evaluated
  IC50: 10 to 50 µM
[3]; 3-day exposure, human cancer cell lines, read-out: concentration required to inhibit tumor cell growth (IC50)
  IC50: 12.5 to 50 µM
[3]
  cytotoxic concentration lower than that for antibacterial/antibiotic effect: approximately 100 fold
[3]; listed as taurolidine
  cytotoxic concentration lower than that for antibacterial/antibiotic effect: at least 1000 fold
NIH-3T3 cells [4]
  increase in Annexin-V binding: ~5%
Ovarian tumor cells
  DNA fragmentation: overt DNA fragmentation
[5]
  exposure time that induces apoptosis: 90 min
[6]
  cytotoxicity: not cytotoxic in the high μM range
[7]; normal murine bone marrow
  concentrations required to inhibit cell proliferation: mM range
[7]; normal murine bone marrow cultures
  cytotoxicity: not cytotoxic in the high μM range
[8]
  factors controlling the growth of blood vessels: decreased
[9]
  increase in Annexin-V binding: 4 fold
[10]
  increase in Annexin-V binding: 3 fold
[11]
  cytotoxicity: Significant cytotoxicity
NIH-3T3 cells [12]
  PARP cleavage: little evidence of this proteolytic event
[13]
  reduction in tumor foci: 75-80%
PA-1 cells
  PARP cleavage: resulted in PARP cleavage
SKOV-3 cells
  PARP cleavage: resulted in PARP cleavage
